Reference: patent publication EP3454861B1, “BENZOXAZINE OR QUINAZOLINE DERIVATIVES FOR USE IN THE TREATMENT OF ALZHEIMER'S DISEASE” (Biocodex, priority 2016, dated 2017)

Key:
[1] = tested on: peroxydation lipidique; assay: Lipid peroxidation measurement in mouse hippocampus (colorimetric, CHP equivalents); assay type: in vivo, souris; settings: Etifoxine 12,5-50 mg/kg per day IP, Aβ25-35 ICV, day 10
Description: Le 1^er jour : une version « mélangée » (scrambled) du peptide amyloïde β25-35 (Sc.Aβ, témoin négatif) ou le peptide amyloïde β25-35 (Aβ25-35) est injecté par voie intra-cérébroventriculaire (ICV) (le peptide Aβ25-35 provoque l'intoxication cellulaire). Entre le 1^er jour et le 10^ème jour, les traitements sont administrés une fois par jour par voie intrapéritonéale (IP).
A la fin de la session de rétention d'évitement passif, le 10^ème jour, les animaux sont sacrifiés par décapitation. L'hippocampe et le cortex frontal sont disséqués et congelés dans l'azote liquide. L'hippocampe est utilisé pour mesurer le taux de peroxydation lipidique à l'aide d'une méthode colorimétrique et pour évaluer les taux de 4 marqueurs biochimiques par des tests ELISA. Le cortex est conservé à -80°C en attente d'analyses supplémentaires. Les plasmas sont également conservés en attente d'analyses supplémentaires. Les échantillons biologiques sont jetés après 3 mois.
Les souris de chaque groupe sont sacrifiées par décapitation et les deux hippocampes sont prélevés, pesés et conservés dans de l'azote liquide jusqu'à l'analyse. […] Après avoir lu l'absorbance à 580 nm (A5801), 10 µl d'hyperoxyde de cumène (CHP) (1 mM) sont ajoutés à l'échantillon et il est incubé pendant 30 minutes à température ambiante pour déterminer le degré d'oxydation maximal. L'absorbance est mesurée à 580 nm (A5802). […]

[2] = tested on: neurones corticaux; assay: Survival of cortical neurons after Aβ1-42 intoxication (MAP-2 immunostaining); assay type: cell-based, rats; settings: 1 h pre-incubation, Aβ1-42 10 µM, 24 h
Description: Des neurones corticaux de rats sont mis en culture comme dans la méthode décrite par Singer (1999) J. Neurosci. 19:2455-2463. Des rats femelles enceintes de 15 jours sont tuées par dislocation des cervicales (Rats Wistar, Janvier) et le fœtus est retiré de l'utérus. Les cortex sont prélevés et placés dans un milieu glacé de Leibovitz (L15, Panbiotech, Réf : P04-27055, lot : 9310614) contenant 2% de pénicilline (10 000 U/ml) et de streptomycine (10 mg/ml) (PS, Panbiotec, Réf : P06-07100, lot : 48101114) et 1% de sérum-albumine bovine (BSA, Panbiotech, Réf : P06-1391100, lot : H140603). Les cortex sont dissociés par trypsination (0,05% Panbiotech, Réf : P10-023100, lot : 5890314) pendant 20 minutes à 37°C. La réaction est stoppée par addition d'un milieu Eagle modifié de Dulbecco (DMEM, Panbiotech, réf P04-03600, lot : 9670913) contenant de la DNase I grade Il (0,1 mg/ml Panbiotech, Réf : P60-37780100, lot : H140508) et 10 % de sérum de veau fœtal (FCS, Invitrogen, Réf : 10270 à 098, lot : 41Q4120K). Les cellules sont dissociées mécaniquement par 3 passages à travers une pipette de 10 ml. Les cellules sont ensuite centrifugées à 515 g pendant 10 minutes à 4°C. […]

Question: What does the source list for `CCNC1=Nc2ccc(Cl)cc2C(C)(c2ccccc2)O1` (stereo not drawn) [Etifoxine, chlorhydratede 6-chloro-2-éthylamino-4-méthyl-4-phényl-4H-[3,1]benzoxazine]?
Answer: peroxydation lipidique dans l'hippocampe (stress oxydatif induit par Aβ25-35) [1]: diminuer de manière dose-sensible le stress oxydatif; survie des neurones ([2]; étifoxine 3 µM, p <0,05): restaure de manière significative la survie des neurones; survie des neurones ([2]; étifoxine 10 µM, p <0,01): restaure de manière significative la survie des neurones
